Results as given in patent publication US10287301B2 (Achillion Pharmaceuticals, Inc., priority 2015, dated 2019).

What follows are compounds tested against Human Factor D (Homo sapiens (Human), UniProt P00746) (assay: Human Factor D Assay). Details: not given.
Format: biochemical
Description: Human Factor D (purified from human serum, Complement Technology, Inc.) at 80 nM final concentration was incubated with test compound at various concentrations for 5 minutes at room temperature in 50 mM Tris, 1M NaCl, pH 7.5. A synthetic substrate Z-L-Lys-SBzl and DTNB (Ellman's reagent) are added to final concentrations of 100 μM each. […] IC50 values are calculated by nonlinear regression of complement Factor D reaction rates as a function of test compound concentration.

Sequence of Human Factor D (P00746 26-253): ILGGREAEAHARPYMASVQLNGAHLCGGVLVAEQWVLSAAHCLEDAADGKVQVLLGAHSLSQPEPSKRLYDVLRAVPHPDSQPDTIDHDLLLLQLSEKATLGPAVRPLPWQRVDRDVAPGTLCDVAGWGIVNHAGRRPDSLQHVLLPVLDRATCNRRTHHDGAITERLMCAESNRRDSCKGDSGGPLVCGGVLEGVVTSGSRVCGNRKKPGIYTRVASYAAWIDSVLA

Row | Structure (SMILES) | IC50
1 | CC(=O)c1cn(CC(=O)N2C[C@H](F)C[C@H]2C(=O)Nc2ccccc2-c2nc3ccccc3s2)c2ccc(-c3ccnnc3)cc12 [Compound 34, (2S,4R)-1-(2-(3-acetyl-5-(pyridazin-4-yl)-1H-indol-1-yl)acetyl)-N-(2-(benzo[d]thiazol-2-yl)phenyl)-4-fluoropyrrolidine-2-carboxamide] | > 10 µM
2 | NC(=O)c1nn(CC(=O)N2C[C@H](F)C[C@H]2C(=O)NCc2cccnc2)c2ccc(-c3ccnnc3)cc12 [Compound 39, 1-(2-((2S,4R)-4-fluoro-2-(pyridin-3-ylmethylcarbamoyl)pyrrolidin-1-yl)-2-oxoethyl)-5-(pyridazin-4-yl)-1H-indazole-3-carboxamide] | 1 to 10 µM
3 | NC(=O)c1nn(CC(=O)N2C[C@H](F)C[C@H]2C(=O)Nc2cccnc2)c2ccc(-c3ccnnc3)cc12 [Compound 47, 1-(2-((2S,4R)-4-fluoro-2-(pyridin-3-ylcarbamoyl)pyrrolidin-1-yl)-2-oxoethyl)-5-(pyridazin-4-yl)-1H-indazole-3-carboxamide] | > 10 µM
4 | CCN1Cc2ccc(NC(=O)[C@@H]3C[C@@H](F)CN3C(=O)Cn3cc(C(C)=O)c4cc(-c5ccnnc5)ccc43)cc2C1=O [Compound 49, (2S,4R)-1-(2-(3-acetyl-5-(pyridazin-4-yl)-1H-indol-1-yl)acetyl)-N-(2-ethyl-3-oxoisoindolin-5-yl)-4-fluoropyrrolidine-2-carboxamide] | 1 to 10 µM

Same assay, conditions: Human Factor D 80 nM, substrate Z-L-Lys-SBzl; read-out: IC50

Row | Structure (SMILES) | IC50
5 | CC(=O)c1cn(CC(=O)N2C[C@H](F)C[C@H]2C(=O)Nc2cccc(-c3ccccc3Cl)c2F)c2ccc(-c3ccnnc3)cc12 [Compound 20, (2S,4R)-1-(2-(3-Acetyl-5-(pryridazin-4-yl)-1H-indol-1-yl)acetyl)-N-(2′-chloro-2-fluoro-[1,1′-biphenyl]-3-yl)-4-fluoropyrrolidine-2-carboxamide] | < 1 µM
6 | COc1ncc(-c2ccc3c(c2)c(C(C)=O)cn3CC(=O)N2C[C@H](F)C[C@H]2C(=O)Nc2cccc(Br)n2)cn1 [Compound 21, (2S,4R)-1-(2-(3-acetyl-5-(2-methoxypyrimidin-5-yl)-1H-indol-1-yl)acetyl)-N-(6-bromopyridin-2-yl)-4-fluoropyrrolidine-2-carboxamide] | < 1 µM
7 | CN1CC=C(c2ccc3c(c2)c(C(N)=O)nn3CC(=O)N2C[C@H](F)C[C@H]2C(=O)Nc2cccc(Br)n2)CC1 [Compound 22, 1-(2-((2S,4R)-2-(6-bromopyridin-2-ylcarbamoyl)-4-fluoropyrrolidin-1-yl)-2-oxoethyl)-5-(1-methyl-1,2,3,6-tetrahydropyridin-4-yl)-1H-indazole-3-carboxamide] | < 1 µM
8 | NC(=O)c1nn(CC(=O)N2C[C@H](F)C[C@H]2C(=O)Nc2cccc(Br)n2)c2ccc(-c3ccnnc3)cc12 [Compound 25, 1-(2-((2S,4R)-2-(6-bromopyridin-2-ylcarbamoyl)-4-fluoropyrrolidin-1-yl)-2-oxoethyl)-5-(pyridazin-4-yl)-1H-indazole-3-carboxamide] | < 1 µM
9 | CC(=O)c1cn(CC(=O)N2C[C@H](F)C[C@H]2C(=O)Nc2cccc(-c3ccccc3Cl)c2F)c2ccc(-c3cnc(N4CCCC4)nc3)cc12 [Compound 26, (2S,4R)-1-(2-(3-acetyl-5-(2-(pyrrolidin-1-yl)pyrimidin-5-yl)-1H-indol-1-yl)acetyl)-N-(2′-chloro-2-fluorobiphenyl-3-yl)-4-fluoropyrrolidine-2-carboxamide] | < 1 µM
10 | COc1ncc(-c2ccc3c(c2)c(C(C)=O)cn3CC(=O)N2C[C@H](F)C[C@H]2C(=O)Nc2cccc(-c3ccccc3Cl)c2F)cn1 [Compound 27, (2S,4R)-1-(2-(3-acetyl-5-(2-methoxypyrimidin-5-yl)-1H-indol-1-yl)acetyl)-N-(2′-chloro-2-fluorobiphenyl-3-yl)-4-fluoropyrrolidine-2-carboxamide] | < 1 µM
11 | CC(=O)c1cn(CC(=O)N2C[C@H](F)C[C@H]2C(=O)Nc2cccc(-c3ccccc3Cl)c2F)c2ccc(C3=CCN(C(C)=O)CC3)cc12 [Compound 28, (2S,4R)-1-(2-(3-Acetyl-5-(1-acetyl-1,2,3,6-tetrahydropyridin-4-yl)-1H-indol-1-yl)acetyl)-N-(2′-chloro-2-fluoro-[1,1′-biphenyl]-3-yl)-4-fluoropyrrolidine-2-carboxamide] | < 1 µM
12 | COc1ncc(-c2ccc3c(c2)c(C(N)=O)nn3CC(=O)N2C[C@H](F)C[C@H]2C(=O)Nc2cccc(-c3ccccc3Cl)c2F)cn1 [Compound 29, 1-(2-((2S,4R)-2-(2′-chloro-2-fluorobiphenyl-3-ylcarbamoyl)-4-fluoropyrrolidin-1-yl)-2-oxoethyl)-5-(2-methoxypyrimidin-5-yl)-1H-indazole-3-carboxamide] | < 1 µM
13 | COc1ncc(-c2ccc3c(c2)c(C(N)=O)nn3CC(=O)N2C[C@H](F)C[C@H]2C(=O)Nc2cccc(Cl)n2)cn1 [Compound 30, 1-(2-((2S,4R)-2-(6-chloropyridin-2-ylcarbamoyl)-4-fluoropyrrolidin-1-yl)-2-oxoethyl)-5-(2-methoxypyrimidin-5-yl)-1H-indazole-3-carboxamide] | < 1 µM
14 | CC(=O)c1cn(CC(=O)N2C[C@H](F)C[C@H]2C(=O)Nc2cccc(-c3ccccc3Cl)c2F)c2ccc(N3CCN(c4ncccn4)CC3)cc12 [Compound 31, (2S,4R)-1-(2-(3-acetyl-5-(4-(pyrimidin-2-yl)piperazin-1-yl)-1H-indol-1-yl)acetyl)-N-(2′-chloro-2-fluorobiphenyl-3-yl)-4-fluoropyrrolidine-2-carboxamide] | < 1 µM
15 | CC(=O)c1cn(CC(=O)N2C[C@H](F)C[C@H]2C(=O)Nc2cccc(-c3ccccc3Cl)c2F)c2ccc(N3CCN(c4ncc(F)cn4)CC3)cc12 [Compound 32, (2S,4R)-1-(2-(3-acetyl-5-(4-(5-fluoropyrimidin-2-yl)piperazin-1-yl)-1H-indol-1-yl)acetyl)-N-(2′-chloro-2-fluorobiphenyl-3-yl)-4-fluoropyrrolidine-2-carboxamide] | < 1 µM
16 | CC(=O)c1cn(CC(=O)N2C[C@H](F)C[C@H]2C(=O)Nc2cccc(-c3ccccc3Cl)c2F)c2ccc(N3CCN(S(C)(=O)=O)CC3)cc12 [Compound 33, (2S,4R)-1-(2-(3-Acetyl-5-(4-(methylsulfonyl)piperazin-1-yl)-1H-indol-1-yl)acetyl)-N-(2′-chloro-2-fluoro-[1,1′-biphenyl]-3-yl)-4-fluoropyrrolidine-2-carboxamide] | < 1 µM
17 | CC(=O)c1cn(CC(=O)N2C[C@H](F)C[C@H]2C(=O)NCc2ccccn2)c2ccc(-c3ccnnc3)cc12 [Compound 38, (2S,4R)-1-(2-(3-acetyl-5-(pyridazin-4-yl)-1H-indol-1-yl)acetyl)-4-fluoro-N-(pyridin-2-ylmethyl) pyrrolidine-2-carboxamide] | < 1 µM
18 | NC(=O)c1nn(CC(=O)N2C[C@H](F)C[C@H]2C(=O)Nc2ccccc2-c2nc3ccccc3s2)c2ccc(-c3ccnnc3)cc12 [Compound 41, 1-(2-((2S,4R)-2-(2-(benzo[d]thiazol-2-yl)phenylcarbamoyl)-4-fluoropyrrolidin-1-yl)-2-oxoethyl)-5-(pyridazin-4-yl)-1H-indazole-3-carboxamide] | > 10 µM
19 | CC(=O)c1cn(CC(=O)N2C[C@H](F)C[C@H]2C(=O)Nc2noc3cc(C(F)(F)F)ccc23)c2ccc(-c3ccnnc3)cc12 [Compound 42, (2S,4R)-1-(2-(3-acetyl-5-(pyridazin-4-yl)-1H-indol-1-yl)acetyl)-4-fluoro-N-(6-(trifluoromethyl)benzo[d]isoxazol-3-yl)pyrrolidine-2-carboxamide] | > 10 µM
20 | CC(=O)c1cn(CC(=O)N2C[C@H](F)C[C@H]2C(=O)NCc2cccc(Cl)c2)c2ccc(-c3ccnnc3)cc12 [Compound 44, (2S,4R)-1-(2-(3-acetyl-5-(pyridazin-4-yl)-1H-indol-1-yl)acetyl)-N-(3-chlorobenzyl)-4-fluoropyrrolidine-2-carboxamide] | < 1 µM
21 | NC(=O)c1nn(CC(=O)N2C[C@H](F)C[C@H]2C(=O)NCc2cccc(Cl)c2)c2ccc(-c3ccnnc3)cc12 [Compound 45, 1-(2-((2S,4R)-2-(3-chlorobenzylcarbamoyl)-4-fluoropyrrolidin-1-yl)-2-oxoethyl)-5-(pyridazin-4-yl)-1H-indazole-3-carboxamide] | < 1 µM
22 | CC(=O)c1cn(CC(=O)N2C[C@H](F)C[C@H]2C(=O)NCc2cc(F)cc(Cl)c2)c2ccc(-c3ccnnc3)cc12 [Compound 46, (2S,4R)-1-(2-(3-acetyl-5-(pyridazin-4-yl)-1H-indol-1-yl)acetyl)-N-(3-chloro-5-fluorobenzyl)-4-fluoropyrrolidine-2-carboxamide] | < 1 µM
23 | CCN1Cc2ccc(NC(=O)[C@@H]3C[C@@H](F)CN3C(=O)Cn3nc(C(N)=O)c4cc(-c5ccnnc5)ccc43)cc2C1=O [Compound 48, 1-(2-((2S,4R)-2-(2-ethyl-3-oxoisoindolin-5-ylcarbamoyl)-4-fluoropyrrolidin-1-yl)-2-oxoethyl)-5-(pyridazin-4-yl)-1H-indazole-3-carboxamide] | > 10 µM
24 | NC(=O)c1nn(CC(=O)N2C[C@H](F)C[C@H]2C(=O)Nc2ccc3ncsc3c2)c2ccc(-c3ccnnc3)cc12 [Compound 50, 1-(2-((2S,4R)-2-(benzo[d]thiazol-6-ylcarbamoyl)-4-fluoropyrrolidin-1-yl)-2-oxoethyl)-5-(pyridazin-4-yl)-1H-indazole-3-carboxamide] | > 10 µM
25 | NC(=O)c1nn(CC(=O)N2C[C@H](F)C[C@H]2C(=O)N[C@@H]2CCC[C@@H]2OCc2ccccc2)c2ccc(-c3ccnnc3)cc12 [Compound 51, 1-(2-((2S,4R)-2-((1R,2S)-2-(benzyloxy)cyclopentyl-carbamoyl)-4-fluoropyrrolidin-1-yl)-2-oxoethyl)-5-(pyridazin-4-yl)-1H-indazole-3-carboxamide] | > 10 µM
26 | NC(=O)c1nn(CC(=O)N2C[C@H](F)C[C@H]2C(=O)NCc2nc3ccccc3s2)c2ccc(-c3ccnnc3)cc12 [Compound 52, 1-(2-((2S,4R)-2-(benzo[d]thiazol-2-ylmethylcarbamoyl)-4-fluoropyrrolidin-1-yl)-2-oxoethyl)-5-(pyridazin-4-yl)-1H-indazole-3-carboxamide] | > 10 µM
